Test results: patent publication US10738045B2, “Pesticidally active heterocyclic derivatives with sulphur and cyclopropyl containing substituents” (SYNGENTA PARTICIPATIONS AG, priority 2015, dated 2020)

What was measured:
Assay in all cases: whole plant or invertebrate
Format in all cases: in vivo
[1] = tested on: Plutella xylostella (Diamond Back Moth); settings: 120 h, application rate of 200 ppm, L2 larvae, 5 days after infestation, read-out: effect in at least one of the two categories (mortality or growth inhibition)
Method: (§1) 24-well microtiter plates with artificial diet were treated with aqueous test solutions prepared from 10,000 ppm DMSO stock solutions by pipetting. After drying, the plates were infested with L2 larvae (10 to 15 per well). The samples were assessed for mortality and growth inhibition in comparison to untreated samples 5 days after infestation.

[2] = tested on: Myzus persicae (Green Peach Aphid); settings: foliar, 144 h, application rate of 200 ppm, sunflower leaf discs, population of mixed ages, 6 days after infestation
Method: Sunflower leaf discs were placed onto agar in a 24-well microtiter plate and sprayed with aqueous test solutions prepared from 10,000 ppm DMSO stock solutions. After drying, the leaf discs were infested with an aphid population of mixed ages. The samples were assessed for mortality 6 days after infestation.

[3] = tested on: Spodoptera littoralis (Egyptian Cotton Leaf Worm); settings: 144 h, test rate of 12.5 ppm, lettuce grown on treated agar, 6 days after infestation, read-out: effect in at least one of the three categories (mortality, anti-feeding, or growth inhibition)
Source text: Test compounds were applied by pipette from 10,000 ppm DMSO stock solutions into 24-well plates and mixed with agar. Lettuce seeds were placed onto the agar and the multi well plate was closed by another plate which contained also agar. After 7 days the compound was absorbed by the roots and the lettuce grew into the lid plate. The lettuce leaves were then cut off into the lid plate. Spodoptera eggs were pipetted through a plastic stencil onto a humid gel blotting paper and the lid plate was closed with it. The samples were assessed for mortality, anti-feedant effect and growth inhibition in comparison to untreated samples 6 days after infestation.

[4] = tested on: Spodoptera littoralis (Egyptian Cotton Leaf Worm); settings: foliar, 72 h, application rate of 200 ppm, L1 larvae, 3 days after infestation, read-out: control (mortality, anti-feeding effect or growth inhibition)
Method: Cotton leaf discs were placed onto agar in 24-well microtiter plates and sprayed with aqueous test solutions prepared from 10,000 ppm DMSO stock solutions. After drying the leaf discs were infested with five L1 larvae. The samples were assessed for mortality, anti-feeding effect, and growth inhibition in comparison to untreated samples 3 days after infestation.

[5] = tested on: Bemisia tabaci (Cotton White Fly); settings: foliar, 144 h, application rate of 200 ppm, cotton leaf discs, adult white flies, 6 days after incubation
Method: Cotton leaf discs were placed on agar in 24-well microtiter plates and sprayed with aqueous test solutions prepared from 10,000 ppm DMSO stock solutions. After drying the leaf discs were infested with adult white flies. The samples were checked for mortality 6 days after incubation.

[6] = tested on: Diabrotica balteata (Corn Root Worm); settings: 96 h, application rate of 200 ppm, L2 larvae, 4 days after infestation, read-out: effect in at least one of the two categories (mortality or growth inhibition)
Method: as §1, with “Maize sprouts placed onto an agar layer in 24-well” for “24-well”, “plates” for “plates with artificial diet”, “spraying.” for “pipetting.”, “(6” for “(10”, “10” for “15”, “4” for “5”

[7] = tested on: Frankliniella occidentalis (Western Flower Thrips); settings: foliar, 168 h, application rate of 200 ppm, sunflower leaf discs, population of mixed ages, 7 days after infestation
Method: (§2) Sunflower leaf discs were placed on agar in 24-well microtiter plates and sprayed with aqueous test solutions prepared from 10,000 DMSO stock solutions. After drying the leaf discs were infested with a Frankliniella population of mixed ages. The samples were assessed for mortality 7 days after infestation.

[8] = tested on: Thrips tabaci (Onion Thrips); settings: foliar, 144 h, application rate of 200 ppm, sunflower leaf discs, population of mixed ages, 6 days after infestation
Method: as §2, with “10,000 ppm” for “10,000”, “thrips” for “Frankliniella”, “6” for “7”

[9] = tested on: Euschistus heros (Neotropical Brown Stink Bug); settings: in Glycine max, 120 h, application rate of 200 ppm, N2 nymphs, 5 days after infestation, read-out: effect in at least one of the two categories (mortality or growth inhibition)
Method: Soybean leaves on agar in 24-well microtiter plates were sprayed with aqueous test solutions prepared from 10,000 ppm DMSO stock solutions. After drying the leaves were infested with N2 nymphs. The samples were assessed for mortality and growth inhibition in comparison to untreated samples 5 days after infestation.

[10] = tested on: Tetranychus urticae (Two-Spotted Spider Mite); settings: foliar, 192 h, application rate of 200 ppm, bean leaf discs, mixed population (mobile stages), 8 days after infestation
Method: Bean leaf discs on agar in 24-well microtiter plates were sprayed with aqueous test solutions prepared from 10,000 ppm DMSO stock solutions. After drying the leaf discs were infested with a mite population of mixed ages. The samples were assessed for mortality on mixed population (mobile stages) 8 days after infestation.

[11] = tested on: Myzus persicae (Green Peach Aphid); settings: 144 h, test rate of 24 ppm, roots of pea seedlings in test solution, 6 days
Method: Roots of pea seedlings infested with an aphid population of mixed ages were placed directly into aqueous test solutions prepared from 10,000 DMSO stock solutions. The samples were assessed for mortality 6 days after placing seedlings into test solutions.

CCS(=O)(=O)c1cc(C(F)(F)F)cnc1-c1nc2cc(C(F)(F)F)n(C3CC3)c(=O)c2n1C [Compound A1, 5-cyclopropyl-2-[3-ethylsulfonyl-5-(trifluoromethyl)-2-pyridyl]-3-methyl-6-(trifluoromethyl) imidazo[4,5-c]pyridin-4-one]
≥ 80%: percent effect (mortality or growth inhibition) at 200 ppm [1] | mortality at 200 ppm [2] | percent effect (mortality, anti-feeding or growth inhibition) at 12.5 ppm [3] | percent control (mortality, anti-feedant effect or growth inhibition) at 200 ppm [4] | mortality at 200 ppm [5] | percent effect (mortality or growth inhibition) at 200 ppm [6] | mortality at 200 ppm [7] | mortality at 200 ppm [8] | percent effect (mortality or growth inhibition) at 200 ppm [9]

CCS(=O)(=O)c1cc(-n2ccc(C(F)(F)F)n2)cnc1-c1nc2cc(C(F)(F)F)n(C3CC3)c(=O)c2n1C [Compound A3, 5-cyclopropyl-2-[3-ethylsulfonyl-5-[3-(trifluoromethyl)pyrazol-1-yl]-2-pyridyl]-3-methyl-6-(trifluoromethyl)imidazo[4,5-c]pyridin-4-one]
≥ 80%: percent effect (mortality or growth inhibition) at 200 ppm [1] | percent control (mortality, anti-feedant effect or growth inhibition) at 200 ppm [4] | percent effect (mortality or growth inhibition) at 200 ppm [6] | percent effect (mortality or growth inhibition) at 200 ppm [9]

CCS(=O)(=O)c1cc(Br)cnc1-c1nc2cc(C(F)(F)F)n(C3CC3)c(=O)c2n1C [Compound A5, 2-(5-bromo-3-ethylsulfonyl-2-pyridyl)-5-cyclopropyl-3-methyl-6-(trifluoromethyl)imidazo[4,5-c]pyridin-4-one]
≥ 80%: percent effect (mortality or growth inhibition) at 200 ppm [1] | mortality at 200 ppm [2] | percent effect (mortality, anti-feeding or growth inhibition) at 12.5 ppm [3] | percent control (mortality, anti-feedant effect or growth inhibition) at 200 ppm [4] | mortality at 200 ppm [5] | percent effect (mortality or growth inhibition) at 200 ppm [6] | mortality at 200 ppm [8] | percent effect (mortality or growth inhibition) at 200 ppm [9]

CCS(=O)(=O)c1cc(-c2cc(F)cc(F)c2)cnc1-c1nc2cc(C(F)(F)F)n(C3CC3)c(=O)c2n1C [Compound A6, 5-cyclopropyl-2-[5-(3,5-difluorophenyl)-3-ethylsulfonyl-2-pyridyl]-3-methyl-6-(trifluoromethyl)imidazo[4,5-c]pyridin-4-one]
≥ 80%: percent effect (mortality or growth inhibition) at 200 ppm [1] | mortality at 200 ppm [2] | percent effect (mortality, anti-feeding or growth inhibition) at 12.5 ppm [3] | percent control (mortality, anti-feedant effect or growth inhibition) at 200 ppm [4] | mortality at 200 ppm [5] | percent effect (mortality or growth inhibition) at 200 ppm [6] | mortality at 200 ppm [7] | mortality at 200 ppm [8] | percent effect (mortality or growth inhibition) at 200 ppm [9]

CCS(=O)(=O)c1cc(-c2cc(C(F)(F)F)ccn2)cnc1-c1nc2cc(C(F)(F)F)n(C3CC3)c(=O)c2n1C [Compound A7, 5-cyclopropyl-2-[3-ethylsulfonyl-5-[4-(trifluoromethyl)-2-pyridyl]-2-pyridyl]-3-methyl-6-(trifluoromethyl)imidazo[4,5-c]pyridin-4-one]
≥ 80%: percent effect (mortality or growth inhibition) at 200 ppm [1] | mortality at 200 ppm [2] | percent control (mortality, anti-feedant effect or growth inhibition) at 200 ppm [4] | mortality at 200 ppm [5] | percent effect (mortality or growth inhibition) at 200 ppm [6] | mortality at 200 ppm [7] | percent effect (mortality or growth inhibition) at 200 ppm [9]

CCS(=O)(=O)c1cc(C2(C#N)CC2)cnc1-c1nc2cc(C(F)(F)F)n(C3CC3)c(=O)c2n1C [Compound A31, 1-[6-[5-cyclopropyl-3-methyl-4-oxo-6-(trifluoromethyl)imidazo[4,5-c]pyridin-2-yl]-5-ethylsulfonyl-3-pyridyl]cyclopropanecarbonitrile]
≥ 80%: percent effect (mortality or growth inhibition) at 200 ppm [1] | mortality at 200 ppm [2] | percent effect (mortality, anti-feeding or growth inhibition) at 12.5 ppm [3] | percent control (mortality, anti-feedant effect or growth inhibition) at 200 ppm [4] | mortality at 200 ppm [5] | percent effect (mortality or growth inhibition) at 200 ppm [6] | mortality at 200 ppm [10] | mortality at 24 ppm [11] | mortality at 200 ppm [7] | mortality at 200 ppm [8] | percent effect (mortality or growth inhibition) at 200 ppm [9]

CCS(=O)(=O)c1cc(-n2cnc(Cl)n2)cnc1-c1nc2cc(C(F)(F)F)n(C3CC3)c(=O)c2n1C [Compound A34, 2-[5-(3-chloro-1,2,4-triazol-1-yl)-3-ethylsulfonyl-2-pyridyl]-5-cyclopropyl-3-methyl-6-(trifluoromethyl)imidazo[4,5-c]pyridin-4-one]
≥ 80%: percent effect (mortality or growth inhibition) at 200 ppm [1] | mortality at 200 ppm [2] | percent effect (mortality, anti-feeding or growth inhibition) at 12.5 ppm [3] | percent control (mortality, anti-feedant effect or growth inhibition) at 200 ppm [4] | percent effect (mortality or growth inhibition) at 200 ppm [6] | mortality at 200 ppm [7] | percent effect (mortality or growth inhibition) at 200 ppm [9]
